Assay results taken from patent publication US20250297135A1, “CERIA AND HYDROXAMIC ACID CMP COMPOSITION” (ENTEGRIS, INC., priority 2024, published 2025).
Like-named read-outs stand apart in the source and are kept apart here.

Tests used:
[1] = pH 5.5
Experimental: (§1) To measure the aqueous solubility, a supersaturated solution of each hydroxamic acid compound was prepared in deionized water. The pH was adjusted to 5.5 using nitric acid and the supersaturated solution was stirred overnight. Excess solids were removed via filtration and the hydroxamic acid compound in solution was quantified using ^1H NMR with a t-BuOH standard.

[2] = Aqueous solubility from supersaturated solution, 1H NMR quantification; conditions: deionized water, pH adjusted to 5.5 using nitric acid, stirred overnight, filtered
Experimental: as §1

SMILES	Aqueous Solubility [1] [%]	Aqueous Solubility [2] [%]
O=C(NO)c1ccc(F)cc1 [4FBHA, 4-Fluorobenzohydroxamic acid]	1.0	
Cc1ccccc1C(=O)NO [4MeBHA, methylbenzo hydroxamic acid]		0.5
COc1ccc(CCCCC(=O)NO)cc1 [4pAnisBuHA, 4-(p-anisyl) butyrohydroxamic acid]	0.5	
